“And” between values parts separate entries of the source, which are not always exact repeats. Equal entries are not always repeated. Where two headings read alike, the source gives them in different places.
Assays:
[1] = system: azamethiphos- and deltamethrin-resistant sea lice; assay: In vitro bath exposure of isolated sea lice (Example 6); conditions: 60 minutes exposure; for % effect: registered approx. 20 h after end of exposure
Experimental: A trial was performed to ensure there was no cross-resistance between azamethiphos- and deltamethrin-resistant sea lice and neonicotinoids. Both pre-adult and adult stages (mobile stages) of both sexes were used, and they were equally distributed among groups. The sea lice were exposed to imidacloprid for 60 minutes, azamethiphos for 60 minutes and deltamethrin for 30 minutes in one litre baths at a range of concentrations (Tables 6, 7 and 8). The sea lice were transferred to clean aerated seawater after treatment. The temperature of the seawater during the experiment was 12° C., but during exposure the temperature raised to approx. 14° C. in regimes exposed for 60 min. (imidacloprid and azamethiphos) and to 13° C. for the regime exposed in 30 minutes (deltamethrin).
The numbers of live and immobilised (including killed) lice in each regime were registered approximately 20 h after end of exposure. Each louse was individually investigated.

Lepeophtheirus salmonis [2] = conditions: 20 ppm (nitenpyram 19 ppm); for percentage of sea lice that dropped from treated fish at the end of the treatment period: culled fish
Experimental: The fish were acclimatised until normal feeding behaviour resumed, up to a maximum of 10 days, prior to challenge. The fish were housed in 750 litre tanks at a stocking density of no greater than 35 kg/m3. Tanks were provided with a continuous supply of seawater at a flow rate greater than 5 L/min at a temperature of 4.8-10.4° C. The photoperiod was set at 12 hours light: 12 hours dark.
The fish were challenged in a static bath with copepodid instar of Lepeophtheirus salmonis with the appearance of egg strings freshly removed from adult female lice at a target titre of 1,250-1,700 copepodids per tank
Egg strings were harvested from gravid sea lice and incubated in upwelling chambers until nauplii eclosion. Nauplii were allowed to moult through to the copepodid instar (5 days at approx. 10° C.) and then the tank water was filtered through a 100 μm mesh before re-suspending the copepodids in 225 mL of sea water. A 25 mL sample was removed which was then split into 1-2 mL samples in a 24-well plate and the nauplii/copepodids were counted under a stereo microscope. When abundance was sufficient and a minimum of 80% were copepodids the fish were challenged for 8 hours under static flow in the dark.
Fish were randomly selected from tanks, lightly sedated in a 90 ppm MS222 solution sufficient only to induce loss of equilibrium before being sacrificed by a non-recoverable blow to the head. Between 4 and 33 fish were required per treatment.
Culled fish were then suspended in treatment tanks. Fish were suspended in the tank horizontally from cable ties (one through the opercular cavity, one around the peduncle) and wire attached to a wooden rod). One 20 L tank of test item at 20 ppm was used per day. Lice on culled fish were exposed for either 5, 10, 15, 30 or 60 minutes (negative control was only exposed for 60 minutes as this would cover the longest exposure period to be tested). The order within treatment was randomised.
Lice were monitored continuously for the duration of the exposure and behavioural observations noted, including detachment of lice from fish. At the end of exposure lice were either removed from the tank or fish, placed into small vented plastic screw-top containers (125 mL, LDPE, 25 mm hole drilled into lid and secured with 200 μm mesh), and transferred to a clean tank supplied with filtered sea water and held there for 24 h. Lice which had detached from fish were kept separate from those that had not detached.
On the day of exposure, 200 mg of the test ectoparasite treatments was added to 1 L of sea water. Only 192 mg of nitenpyram was supplied. The solution was mechanically stirred for 30 minutes, using a stirring plate and magnetic flea (VWR), at a speed sufficient to generate a strong vortex to ensure a homogenous solution. This was then transferred into an approx. 25 L clear plastic tank containing 9 L of sea water. The solution was then mixed for a further 10 minutes using a small pump (Fluval Sea CP1), which was then removed from the tank prior to addition of fish.
Each treatment requiring 1 to 4 fish per individual treatment per replicate and 2 to 13 fish per group per replicate. Treatments with negative control (sea water), dinotefuran, clothianidin and thiamethoxam were replicated twice, and for imidacloprid three times. There was only one replicate per treatment for nitenpyram. The mean number of lice used per individual treatment was 5.5 to 10, with the mean per group being 6.2-7.2 lice.

fish = assay: Safety of imidacloprid treatment on fish (Example 8); format: in vivo; conditions: 65 ppm
Experimental: The safety of the imidacloprid treatment on fish was assessed. Fish held in a flow through tank containing 271.8 L of sea water were exposed to 65 ppm w/v of the active ingredient imidacloprid. 17.67 g of imidacloprid was dissolved in 100 ml of dimethyl sulfoxide (DMSO) and the solution was added to approximately 900 ml sea water and mixed. The flow on the through tank was disabled and the solution of imidacloprid was added.
The fish were exposed to 65 ppm imidacloprid in static water for 1 hour and observed for behavioural changes at 5-10 minute intervals. The fish were then held for a further 7 days before being terminated.

Lepeophtheirus salmonis [3] = assay: Relative efficacy study, 60 min static bucket treatment of infected salmon (Example 2.2); format: in vivo
Experimental: 120 salmon fish (Salmo salar) were divided across five flow-through treatment tanks and acclimated for 24 hours prior to parasite challenge.
Egg strings removed from ovigerous female Lepeophtheirus salmonis were collected and cultured until infective copepodids were produced. The copepodids were then evenly distributed into five bottles containing sea water and stored at ˜10° C. overnight. In preparation for the challenge, water flows in the treatment tanks were stopped and light levels reduced. 650±20 copepodids (˜27 per host) were added to the static water and the tanks maintained in total darkness for 7 hours after which light levels were raised and the water flow resumed.
Fish were randomly divided into ten groups of ten fish and held in static ‘treatment buckets’ containing 30 L of water and high aeration as shown in Table 3. […]
Experimental animals were monitored closely for adverse reactions and the status of the parasite infection. Where possible the time at which all parasites were thought to have detached was recorded. As treatments were performed in static systems, temperature and dissolved oxygen were regularly monitored throughout the procedure and aeration adjusted as required.
After the treatment period, the test animals were removed from the treatment solution and humanly euthanised. Each fish was weighed, measured, and its individual parasite burden assessed. The number of parasites in the treatment solution was also counted and qualitatively assessed for: sex and maturity, apparent signs of neonicotinoid poisoning, and/or potential recovery.
Logistic regression was used to compare parasite clearance after treatment with each of the concentration. Logistic regression analyses were performed using the glm function in R v.2.13.0 and assumed a binomial or quasi-binomial error distribution (determined through the comparison of the null deviance with the degrees of freedom).

[4] = exposure 15 min, * only one louse knocked down
[5] = exposure 30 min, * only one louse knocked down
[6] = exposure 60 min, * only one louse knocked down

Structure (SMILES): O=[N+]([O-])NC1=NCCN1Cc1ccc(Cl)nc1 [imidacloprid]
- % effect ([1]; 5 ppm): 30%
- % effect ([1]; 10 ppm): 40% and 50%
- % effect ([1]; 15 ppm): 100%
- % effect ([1]; 20 ppm): 100%
- % effect ([1]; 30 ppm): 100%
- estimated EC50 value ([1]; immobilisation approx. 20 h after exposure): 7.6 ppm
- percentage of sea lice that dropped from treated fish at the end of the treatment period (Lepeophtheirus salmonis [2]; exposure 5 min): 0%
- knockdown times (mean±SEM) (Lepeophtheirus salmonis [2]; exposure 10 min): 481 ± 60 s
- percentage of lice for which their knockdown time equalled that of the exposure time (Lepeophtheirus salmonis [2]; exposure 10 min): 33.3%
- percentage of sea lice that dropped from treated fish at the end of the treatment period (Lepeophtheirus salmonis [2]; exposure 10 min): 20.0%
- percentage of sea lice that dropped from treated fish at the end of the treatment period (Lepeophtheirus salmonis [2]; exposure 15 min): 42.9%
- knockdown times (mean±SEM) (Lepeophtheirus salmonis [2]; [4]): 586 ± 114 s
- percentage of lice for which their knockdown time equalled that of the exposure time (Lepeophtheirus salmonis [2]; [4]): 28.6%
- percentage of sea lice that dropped from treated fish at the end of the treatment period (Lepeophtheirus salmonis [2]; exposure 30 min): 41.2%
- knockdown times (mean±SEM) (Lepeophtheirus salmonis [2]; [5]): 1029 ± 165 s
- percentage of lice for which their knockdown time equalled that of the exposure time (Lepeophtheirus salmonis [2]; [5]): 11.1%
- percentage of sea lice that dropped from treated fish at the end of the treatment period (Lepeophtheirus salmonis [2]; exposure 60 min): 92.9%
- knockdown times (mean±SEM) (Lepeophtheirus salmonis [2]; [6]): 1209 ± 235 s
- percentage of lice for which their knockdown time equalled that of the exposure time (Lepeophtheirus salmonis [2]; [6]): 7.7%
- Adverse reactions during a further 7 days (fish; 1 hour exposure, 7 days monitoring): no adverse reactions
- External pathologies on termination (fish; 1 hour exposure, terminated after 7 days): no external pathologies
- Fish behaviour during the exposure period (fish; static water, 1 hour): No observable changes in fish behaviour
- Parasites remained attached to their hosts at the sampling point (Lepeophtheirus salmonis [3]; 10 mg/l): 20%
- Parasites remained attached to their hosts at the sampling point (Lepeophtheirus salmonis [3]; 25 mg/l): 3%
- Parasites remained attached to their hosts at the sampling point (Lepeophtheirus salmonis [3]; 15 and 20 mg/l): 8%
